According to patent US7531545B2, “2-amino-3,4-dihydro-pyrido[3,4-d]pyrimidine derivatives useful as inhibitors of β-secretase (BACE)” (Janssen Pharmaceutica, N.V., priority 2005, dated 2009):
Several values for one entry are separate records, joined by “and”; a condition that tells them apart may be missing. Equal values may be shown once. Where a name gives a salt, the structure may show the parent alone.

Columns and labels:
[1] = molecular target: T1, β-secretase (BACE) (Homo sapiens, UniProt P56817); test: BACE FS1 Assay (% Inhibition and Ki); type: biochemical; conditions: FS1 substrate; for inhibition at 0.3 µM / % Inhibition (FS) @ 0.3 μM: 0.3 μM test compound; for inhibition at 0.3 µM: read-out: % Inhibition (FS) @ 0.3 μM; for inhibition at 1 µM / % Inhibition (FS) @ 1 μM: 1 μM test compound; for inhibition at 1 µM: read-out: % Inhibition (FS) @ 1 μM; for inhibition at 3 µM / % Inhibition (FS) @ 3 μM: 3 μM test compound; for inhibition at 3 µM: read-out: % Inhibition (FS) @ 3 μM
T1 construct: purchased Panvera
T1 sequence (P56817 46-501): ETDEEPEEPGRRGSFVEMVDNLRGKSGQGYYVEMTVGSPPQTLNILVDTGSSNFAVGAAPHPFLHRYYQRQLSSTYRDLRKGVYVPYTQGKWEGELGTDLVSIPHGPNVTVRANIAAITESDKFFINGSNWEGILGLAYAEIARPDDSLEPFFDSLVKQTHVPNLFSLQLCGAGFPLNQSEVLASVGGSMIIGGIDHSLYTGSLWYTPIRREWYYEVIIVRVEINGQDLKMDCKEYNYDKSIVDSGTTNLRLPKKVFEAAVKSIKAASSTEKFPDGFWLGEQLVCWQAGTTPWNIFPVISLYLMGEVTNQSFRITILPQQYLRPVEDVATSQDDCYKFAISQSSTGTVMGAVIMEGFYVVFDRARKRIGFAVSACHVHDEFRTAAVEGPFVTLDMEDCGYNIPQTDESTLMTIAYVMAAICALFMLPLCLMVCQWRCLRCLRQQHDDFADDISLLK
Protocol: BACE FS1 Assay (% Inhibition and Ki)
The following reagents were used in this assay: sodium acetate, PEG8000 (Sigma), DMSO, HEPES, FS1 substrate [R(AedensE)[…]-(DabcylK)R], β-secretase (BACE) (Panvera), and 96-well plate (HE microplate, Molecular Devices).
The following assay buffers were prepared and used in this assay: (1) enzyme assay buffer (0.05 M sodium acetate, pH5, 0.1% PEG8000 (w/v)), (2) substrate assay buffer (0.05 M sodium acetate, pH5), and (3) compound vehicle (30% DMSO in 50 mM HEPES, pH 7.4).
The FS1-substrate stock solution was prepared in DMSO as a 10 mg/mL solution. The FS1-substrate working solution was prepared by diluting the 10 mg/mL stock solution with substrate assay buffer to a final concentration of 300 μg/mL. The β-secretase (BACE) working solution was prepared by diluting a 0.83 mg/mL BACE stock solution with enzyme assay buffer to a final concentration of 4 μg/mL.
Test compounds were dissolved in DMSO to 10 mM. Compounds were further diluted in vehicle to various concentrations in the range of 405 μM to 4.05 μM (13.5× final compound concentration in screening plate).
The screening procedure for this assay was as follows: 15 μL of BACE working solution was pipetted into each well of a 96-well plate. To each well was then pipetted 2 μL of test compound at the selected concentration. Test compound and BACE were then mixed with a pipettor and incubated for 20 min at room temperature. To each well was then added 10 μL of the FS1 substrate working solution. The plates were then incubated for 1 hour at room temperature. The fluorescence for each well was then measured on an LJL analyst (Ex 360 nm/Em 530 nm).
The procedure for the blank was as follows. 15 μL of assay buffer was pipetted into each well to be used as a blank control. To each well was then added 2 μL of vehicle and […] of FS1-substrate working solution. The plates were then incubated for 1 hour at room temperature. The fluorescence was measured on an LJL analyst (Ex 360 nm/Em 530 nm).
The procedure for the positive control was as follows: 15 μL of BACE working solution was pipetted into each well to be used as a positive control. To each well was then pipetted 2 μL of vehicle. Vehicle and BACE were then mixed with a pipettor and incubated for 20 min at room temperature. To each well was then added 10 μL of the FS1 substrate working solution. The plates were then incubated for 1 hour at room temperature. The fluorescence (F1) was then measured on an LJL analyst (Ex 360 nm/Em 530 nm).
For test compounds, % inhibition was determined at each concentration as follows:
% Inhibition values of less than 30% were indistinguishable from control are listed as ≦30% in Table 18, below.
For test compounds, measured at multiple concentrations, the measured T0 and T60 values were used to calculate an IC50 value using Graphpad Software (or PIR). Ki inhibition was determined as follows: For each compound concentration and positive control, rate of cleavage of substrate (Vi, where i=compound concentration in μM) was determined as Δ Fluorescence/Δ time (min). Cleavage rates (Vi) were plotted as a function of inhibitor concentration in μM [I]. […]

[2] = molecular target: human BACE-1 (Homo sapiens, UniProt P56817); test: CEREP BACE Inhibition Assay; type: biochemical; conditions: recombinant enzyme
human BACE-1, sequence (P56817 46-501): as above
In short: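 Recombinant human BACE-1 (0.25 μg) was assayed in 0.09 M sodium acetate pH 4.5, with activity followed fluorimetrically as formation of Mca-S-E-V-N-L[…] from peptide substrate. Compound autofluorescence was checked at the detection wavelengths. Basal signal was taken from wells without substrate.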

[3] = 0.3 μM, percent inhibition of the control activity

Structure (SMILES)	inhibition at 0.3 µM [1] [%]	inhibition at 1 µM [1] [%]	inhibition at 3 µM [1] [%]	Ki [1]	% Inhibition (FS) @ 0.3 μM [1] [%]	% Inhibition (FS) @ 1 μM [1] [%]	% Inhibition (FS) @ 3 μM [1] [%]	% Inhibition @ 0.3 μM [2, 3]	inhibition at 0.3 µM [2, 3] [%]	IC50 ([2]; read-out: IC50)
COC(=O)[C@H](COCc1ccccc1)N(C)C(=O)CC[C@@H](C(C)C)N1Cc2cc(Oc3ccccc3)ncc2N=C1N [Compound 51, 2-{[4-(2-Amino-6-phenoxy-4H-pyrido[3,4-d]pyrimidin-3-yl)-5-methyl-(S)-hexanoyl]-methyl-amino}-3-(S)-benzyloxy-propionic acid methyl ester trifluoroacetate salt]	114	118	118	14 nM						
CC(C)[C@H](CCC(=O)N[C@H](COCc1ccccc1)C(=O)OCc1ccccc1)N1Cc2cc(Oc3ccccc3)ncc2N=C1N [Compound 48]	73	107	116	36 nM						
CC(C)[C@H](CCC(=O)N[C@H](CO)C(=O)O)N1Cc2cc(Oc3ccccc3)ncc2N=C1N [Compound 30]	91	106	117	97 nM						
CC(C)C(CCC(=O)N(C)C1CCC(C(=O)O)CC1)N1Cc2cc(Oc3ccccc3)ncc2N=C1N (centres unmarked) [Compound 8]	106	129	138	27 nM and 16 nM	121	115	130			
NC1=Nc2cnc(Oc3ccccc3)cc2CN1[C@@H](CCC(=O)N(CCO)[C@H]1CC[C@@H](C(=O)O)CC1)C1CCCCC1 [Compound 37]	112	111	114	12 nM						
COC(=O)[C@H]1CC[C@H](N(C)C(=O)CC[C@@H](C2CCOCC2)N2Cc3cc(Oc4ccccc4)ncc3N=C2N)CC1 [Compound 34]	96	106	115	32 nM						
CN(C(=O)CC[C@@H](C1CCOCC1)N1Cc2cc(Oc3ccccc3)ncc2N=C1N)[C@H]1CC[C@@H](C(=O)O)CC1 [Compound 33]	114	112	113	5 nM						
CC(C)[C@H](CCC(=O)N(CCCO)C1CCCCC1)N1Cc2cc(Oc3ccccc3)ncc2N=C1N [Compound 19]	88	103	104	55 nM						
CN(C(=O)CC[C@@H](C1CCCCC1)N1Cc2cc(-c3ccccc3F)ncc2N=C1N)C1CCCCC1 [Compound 4]	113	127	132	35 nM						
CN(C(=O)CC[C@@H](C1CCCCC1)N1Cc2cc(Oc3ccccc3)ncc2N=C1N)C1CCCCC1 [Compound 5]	125	131	138	25 nM						
COC(=O)[C@@H](CO)NC(=O)CC[C@@H](C(C)C)N1Cc2cc(Oc3ccccc3)ncc2N=C1N [Compound 28]	116	124	128	17 nM						
CC(C)[C@H](CO)NC(=O)CC[C@@H](C(C)C)N1Cc2cc(Oc3ccccc3)ncc2N=C1N [Compound 36]				21 nM	114	112	114			
CN(CCCCC(=O)O)C(=O)CC[C@@H](C1CCCCC1)N1Cc2cc(Oc3ccccc3)ncc2N=C1N [Compound 44]	61	88	105	148 nM						
NC1=Nc2cnc(Oc3ccccc3)cc2CN1[C@@H](CCC(=O)N(CCOCc1ccccc1)[C@H]1CC[C@@H](C(=O)O)CC1)C1CCOCC1 [Compound 39, 4-[[4-(2-Amino-6-phenoxy-4H-pyrido[3,4-d]pyrimidin-3-yl)-4-(S)-(tetrahydro-pyran-4-yl)-butyryl]-(2-benzyloxy-ethyl)-amino]-cyclohexanecarboxylic acid]	112	110	115	13 nM						
CN(C(=O)CCC(CCO)N1Cc2cc(Oc3ccccc3)ncc2N=C1N)C1CCCCC1 (centres unmarked) [Compound 22]	0	61	93	173 nM						
NC1=Nc2cnc(Oc3ccccc3)cc2CN1[C@@H](CCC(=O)N(CCO)C1CCCCC1)C1CCCCC1 [Compound 7, 4-(2-Amino-6-phenoxy-4H-pyrido[3,4-d]pyrimidin-3-yl)-4S,N-dicyclohexyl-N-(2-hydroxy-ethyl)-butyramide]	136	136	134	10 nM				95% and 100%	91	140 nM and 150 nM
CCOC(=O)C1CCC(N(CCO)C(=O)CCC(C(C)C)N2Cc3cc(Oc4ccccc4)ncc3N=C2N)CC1 (centres unmarked) [Compound 14]	11	66	108	241 nM						
CC(C)(C)OC(=O)NCCN1Cc2cc(Oc3ccccc3)ncc2N=C1N [Compound 2]	70	102	124	91 nM						
CC(C)[C@H](CCC(=O)N(C)CCC(=O)O)N1Cc2cc(Oc3ccccc3)ncc2N=C1N [Compound 16]	12	51	80	1090 nM						
NC1=Nc2cnc(Oc3ccccc3)cc2CN1[C@@H](CCC(=O)N(CCO)[C@H]1CC[C@@H](C(=O)O)CC1)C1CCOCC1 [Compound 38, 4-[[4-(2-Amino-6-phenoxy-4H-pyrido[3,4-d]pyrimidin-3-yl)-4-(S)-(tetrahydro-pyran-4-yl)-butyryl]-(2-hydroxy-ethyl)-amino]-cyclohexanecarboxylic acid]	112	110	115	9 nM						
